# Experiments:
# [1] = tested on: mouse C2C12 myoblasts; experiment: Cell permeability by fluorescence microscopy; format: cell-based; conditions: 12 h, 125 μM, intrinsic fluorescence
# Experimental: For cell permeability studies, human fibroblasts or mouse myoblasts grown to 80% confluence were exposed to compounds for 12 hours in a 96 well tissue culture plate. After removal of the culture media (DMEM, with 10% FBS, 1% pen-strep (GIBCO)) the cells were washed twice with PBS to remove excess compounds. Cells were then imaged while in buffer under a fluorescence microscope (Olympus IX70) in the 96-well plate using a 460 nm emission filter.
# [2] = tested on: HIV-1 FSS RNA (SEQ ID NO: 7); experiment: SPR binding to immobilized biotinylated RNA
# Experimental: SPR binding measurements were performed on a Biacore-X instrument (Biacore, Inc., Uppsala, Sweden) with two flow channels (FC1 and FC2). 5′-Biotinylated-RNA sequences, with a C6 linker separating the biotin label from the RNA (Integrated DNA Technologies Inc.) were immobilized on streptavidin (Rockland Immunochemicals) functionalized carboxylmethyl dextran coated sensor chips (CM5, G.E. Healthcare) using EDC/NHS (Advanced ChemTech) coupling chemistry. Filtered (0.2μ), degassed and autoclaved HBS-N buffer (0.01M Hepes, pH=7.4, 0.15 M NaCl) was employed as sample and as running buffer for all SPR experiments. A typical protocol for an experiment is as follows: A CM5 sensor chip was allowed to equilibrate to room temperature and then docked into the instrument. Following priming with running buffer, FC1 and FC2 were conditioned by manual injection of 20 μL aqueous NaOH (50 mM) at a flow rate of 30 μL/min. This was repeated 3 times followed by a wash command. Next, the carboxyl groups on the sensor chip surface in both flow cells were activated separately by injecting 60 μL of freshly prepared 1:1 mixture of EDC (0.4 M) and NHS (0.1 M) at a 5 μL/min flow rate followed by a wash. […] After washing, the surface was deactivated with 60 μL injection of ethanolamine (1M, pH=8.5) at 5 μL/min. The flow cells were primed, and the streptavidin surface in FC1 alone was blocked with 30 μL of biotin (20 μM in HBS-N) at 5 μL/min. The RNA (200 nM in running buffer, HBS-N) to be immobilized was unfolded by heating above its predicted melting temperature in a heated block for 2 min and then allowed to refold by cooling gradually to room temperature. The RNA was then immobilized in FC2 alone to response units ranging from 200-1000 RU using a 5 μL/min flow rate. Representative sensorgrams for the immobilization procedure is shown in FIGS. 2A-B. Two 20 μL aliquots of NaCl (0.5 M) were injected at a 30 μL/min flow rate to remove non-specifically bound RNA. The level of RNA immobilized was noted when the baseline was stable, usually after repeated buffer injection followed by a “prime” command. Binding measurements were performed by flowing various concentrations of the compounds to be analyzed over the immobilized RNA and recording the reference-subtracted (FC2−FC1) sensorgrams. For kinetic analysis, at least five sensorgrams corresponding to different concentrations of compound (usually ranging from 0.05-1 μM in HBS-N) were obtained using flow rates of either 60 μL/min or 30 μL/min. The experimental sensorgrams were globally fitted to a 1:1 binding equation (Biaevaluation software) to obtain association rates (ka) and dissociation rates ([…]) as well as equilibrium binding constants (KD). To measure the binding stoichiometry (n), the relations in equations (1-3) below were used: […]
# where RUmax is the maximum resonance response unit at saturation, RURNA is the amount RU of RNA immobilized, n is the stoichiometry, MWcompound and MWRNA are molecular weights of compound and RNA respectively, and RUeq represents the resonance response at steady-state (equilibrium). The response units at equilibrium were subjected to Scatchard binding plots of (r/Cfree vs. r). […]
# SPR and fluorescence titration experiments, performed using the protocol described in Examples 3 and 4 above, except using as the target a highly conserved RNA sequence responsible for regulating the production of the Gag-Pol polyprotein via a −1 ribosomal frameshift, which occurs along a “slippery sequence” in gag-pol mRNA (SEQ ID NO: 7). This “frameshift stimulatory sequence” (or “HIV-1 FSS”) consists of an upper stemloop and a lower stem, separated by a purine bulge in the most common types of HIV (FIG. 19). For the fluorescent titration experiments, the upper stemloop of SEQ ID NO: 7 was employed. Cell uptake and toxicity studies were carried out using human fibroblasts according to Example 5 above.
# [3] = tested on: C5-14 cells; format: cell-based, mouse
# Excerpt: Formation of (CUG)800 RNA-MBNL1 complexes in the C5-14 cell line suppresses translation of this mRNA and, therefore, suppresses the cellular level of luciferase Inhibition of protein complexation to the (CUG)800 RNA allows translation to occur, restoring luciferase expression. A second cell line (C1-S) carrying an analogous luciferase construct lacking the CUG repeats in the 3′-UTR was used as a positive control for luciferase expression. […] It was hypothesized that binding of the compounds of the present invention to the (CUG)800 repeat in C5-14 cells would likewise promote release of the luciferase transcripts from the nucleus, resulting in increased luciferase expression and activity. In contrast, luciferase activity in positive control (C1-S) cells should not be affected by the presence of CUG RNA binding compounds. […] The fact that this effect is not observed for compounds 10 and 11 likely results from their greater selectivity for CUG repeats. Thus, CUG^exp binding compounds are capable of releasing the sequestered mRNA transcripts into the cytoplasm for translation.
# [4] = tested on: HSA^LR transgenic mice; experiment: MBNL1-dependent splicing in mouse myotonic dystrophy model (RT-PCR, vastus muscle); format: in vivo; conditions: 40 mg/kg intraperitoneally once per day for 5 days
# Experimental: Mouse handling and experimental procedures were conducted in accordance with the Association for Assessment and Accreditation of Laboratory Animal Care. […] Age- and gender-matched HSA^LR mice (12-16 weeks old) were injected intraperitoneally with 40 mg/kg of compounds or saline alone once per day for 5 days. Mice were sacrificed one day after the last injection, and vastus muscle was obtained for splicing analysis. RNA extraction, cDNA preparation, and RT-PCR were performed as described previously. The PCR products were electrophoresed on agarose gels for separation, and scanned with a laser fluorimager (Typhoon, GE Healthcare). Quantitative analysis of amplified products was performed by ImageQuant software (Molecular Dynamics). Differences between two groups were evaluated by unpaired Student's t-test. A critical test of a compound's performance is its ability to function in vivo. DM1 has several well-studied mouse models (Gomes-Pereira et al., “Myotonic Dystrophy Mouse Models: Towards Rational Therapy Development,” Trends Mol. Med. 17:506-517 (2011), which is hereby incorporated by reference in its entirety). Compound activity in the HSA^LR mouse model, in which transgenic mice carry a long CTG repeat inserted into the human skeletal actin (HSA) gene in skeletal muscle (Mankodi, “Myotonic Dystrophy in Transgenic Mice Expressing an Expanded CUG Repeat,” Science 289:1769-1772 (2000), which is hereby incorporated by reference in its entirety) was examined. […] They also display aberrant splicing of genes, including Clcn1 and Atp2a1, which are hallmarks of nuclear transcript sequestration.
smiles,measurement,setting,value
CCc1nc2cc3ccccc3cc2cc1C(=O)N1CCC[C@H]1C(=O)N[C@@H](C/C=C/C[C@H](NC(=O)[C@@H]1CCCN1C(=O)c1cc2cc3ccccc3cc2nc1CC)C(=O)N[C@@H](CCCCN)C(=O)NCCCN)C(=O)N[C@@H](CCCCN)C(=O)NCCCN [Compound 5],cell membrane penetration / localization,[1],readily penetrate cell membranes and localize in the nucleus
same,Residence time (t1/2) for compound binding to RNA,[2],2.939 min
CCc1nc2cc3ccccc3cc2cc1C(=O)N1CCC[C@H]1C(=O)N[C@@H](C/C=C\C[C@H](NC(=O)[C@@H]1CCCN1C(=O)c1cc2cc3ccccc3cc2nc1CC)C(=O)N[C@@H](CCCCN)C(=O)NCCCN)C(=O)N[C@@H](CCCCN)C(=O)NCCCN [Compound 4],concentration of total protein in cell lysates,[3],decreasing level of protein expression
same,improvement of Atp2a1 splicing,[4],qualitatively appeared to restore splicing
same,improvement of Clcn1 splicing,[4],modest but statistically significant (P=0.0115) improvement
same,Residence time (t1/2) for compound binding to RNA,[2],0.7548 min
same,Off-rates (koff),[2]; SPR,0.0153 s⁻¹
same,On-rates (kon),[2]; SPR,11300 M⁻¹ s⁻¹
same,Kd,"[2]; SPR, read-out: apparent KD",1242.5 ± 0.6 nM

# — US20140050778A1, “NUCLEIC ACID BINDING COMPOUNDS, METHODS OF MAKING, AND USE THEREOF” (UNIVERSITY OF ROCHESTER, priority 2010, published 2014)
